Like-named read-outs stand apart in the source and are kept apart here.
System: infected PBMCs (VSV-G pseudotyped HIV virus VSV-G/pNLG1-P2A-ΔEnv)
Experiment: cells
Assay type: cell-based, human
Conditions: read-out: TACK EC50

| Structure (SMILES) | EC50 (Homo sapiens, PBMC) [nM] | EC50 [nM] |
| --- | --- | --- |
| Cc1nc(CO)[nH]c(=O)c1Cn1cnc(C(F)(F)C(F)F)c(Oc2cc(C(F)F)cc(C#N)c2C)c1=O [Example 48, 5-(difluoromethyl)-3-((1-((2-(hydroxymethyl)-4-methyl-6-oxo-1,6-dihydropyrimidin-5-yl)methyl)-6-oxo-4-(1,1,2,2-tetrafluoroethyl)-1,6-dihydropyrimidin-5-yl)oxy)-2-methylbenzonitrile] | 342 |  |
| Cc1nc(C(C)O)[nH]c(=O)c1Cn1cnc(C(F)(F)C(F)F)c(Oc2cc(Cl)cc(C#N)c2F)c1=O (single isomer, unassigned) [Example 44] | 333 |  |
| COc1cc(C#N)cc(C)c1Oc1c(C(F)(F)C(F)(F)F)ncn(Cc2c(C)nc(C)[nH]c2=O)c1=O [Example 76, 4-((1-((2,4-dimethyl-6-oxo-1,6-dihydropyrimidin-5-yl)methyl)-6-oxo-4-(perfluoroethyl)-1,6-dihydropyrimidin-5-yl)oxy)-3-methoxy-5-methylbenzonitrile] | 498 |  |
| Cc1cc(C#N)c(C)c(Oc2c(Br)ncn(Cc3c(C)nc(C)[nH]c3=O)c2=O)c1 [Example 26, 3-((4-bromo-1-((2,4-dimethyl-6-oxo-1,6-dihydropyrimidin-5-yl)methyl)-6-oxo-1,6-dihydropyrimidin-5-yl)oxy)-2,5-dimethylbenzonitrile] | 413 |  |
| Cc1nc(C)c(Cn2cnc(C(C)(F)F)c(Oc3c(C)cc(C#N)cc3C)c2=O)c(=O)[nH]1 [Example 11, 4-((4-(1,1-difluoroethyl)-1-((2,4-dimethyl-6-oxo-1,6-dihydropyrimidin-5-yl)methyl)-6-oxo-1,6-dihydropyrimidin-5-yl)oxy)-3,5-dimethylbenzonitrile] | 267 |  |
| Cc1nc(C)c(Cn2cnc(C(F)(F)C(F)(F)F)c(Oc3cc(Cl)cc(C#N)c3F)c2=O)c(=O)[nH]1 [Example 87, 5-chloro-3-((1-((2,4-dimethyl-6-oxo-1,6-dihydropyrimidin-5-yl)methyl)-6-oxo-4-(perfluoroethyl)-1,6-dihydropyrimidin-5-yl)oxy)-2-fluorobenzonitrile] | 218 |  |
| Cc1nc(C)c(Cn2cnc(C(F)(F)C(F)(F)F)c(Oc3cc(Br)cc(C#N)c3)c2=O)c(=O)[nH]1 [Example 86, 3-bromo-5-((1-((2,4-dimethyl-6-oxo-1,6-dihydropyrimidin-5-yl)methyl)-6-oxo-4-(perfluoroethyl)-1,6-dihydro-pyrimidin-5-yl)oxy)benzonitrile] | 473 |  |
| Cc1ncc(Cn2cnc(C(F)(F)C(F)F)c(Oc3cc(C(F)F)cc(C#N)c3C)c2=O)c(=O)[nH]1 [Example 70, 5-(difluoromethyl)-2-methyl-3-((1-((2-methyl-6-oxo-1,6-dihydropyrimidin-5-yl)methyl)-6-oxo-4-(1,1,2,2-tetra-fluoroethyl)-1,6-dihydropyrimidin-5-yl)oxy)benzonitrile] | 203 |  |
| Cc1nc(N)c(Cn2cnc(C(F)(F)C(F)F)c(Oc3cc(C(F)F)cc(C#N)c3C)c2=O)c(=O)[nH]1 [Example 59, 3-((1-((4-amino-2-methyl-6-oxo-1,6-dihydropyrimidin-5-yl)methyl)-6-oxo-4-(1,1,2,2-tetrafluoroethyl)-1,6-dihydropyrimidin-5-yl)oxy)-5-(difluoromethyl)-2-methylbenzonitrile] | 135 |  |
| Cc1nc(N)c(Cn2cnc(C(F)(F)C(F)(F)F)c(Oc3cc(C(F)F)cc(C#N)c3C)c2=O)c(=O)[nH]1 [Example 37, 3-((1-((4-amino-2-methyl-6-oxo-1,6-dihydropyrimidin-5-yl)methyl)-6-oxo-4-(perfluoroethyl)-1,6-dihydropyrimidin-5-yl)oxy)-5-(difluoromethyl)-2-methylbenzonitrile] | 114 |  |
| Cc1c(C#N)cc(C(F)F)cc1Oc1c(C(F)(F)C(F)F)ncn(Cc2cnc(CCCO)[nH]c2=O)c1=O [Example 46, 5-(difluoromethyl)-3-((1-((2-(3-hydroxypropyl)-6-oxo-1,6-dihydropyrimidin-5-yl)methyl)-6-oxo-4-(1,1,2,2-tetrafluoroethyl)-1,6-dihydropyrimidin-5-yl)oxy)-2-methylbenzonitrile] | 303 |  |
| Cc1nc(C)c(Cn2cnc(C(F)(F)C(F)F)c(Oc3c(C)cc(C#N)cc3C)c2=O)c(=O)[nH]1 [Example 75, 4-((1-((2,4-dimethyl-6-oxo-1,6-dihydropyrimidin-5-yl)methyl)-6-oxo-4-(1,1,2,2-tetrafluoroethyl)-1,6-dihydropyrimidin-5-yl)oxy)-3,5-dimethylbenzonitrile] | 209 |  |
| Cc1nc(N)c(Cn2cnc(C(C)(F)F)c(Oc3cc(Cl)cc(C#N)c3F)c2=O)c(=O)[nH]1 [Example 58, 3-((1-((4-amino-2-methyl-6-oxo-1,6-dihydropyrimidin-5-yl)methyl)-4-(1,1-difluoroethyl)-6-oxo-1,6-dihydropyrimidin-5-yl)oxy)-5-chloro-2-fluorobenzonitrile] | 252 |  |
| Cc1nc(C)c(Cn2cnc(C(F)(F)C(F)F)c(Oc3cc(C(F)F)cc(C#N)c3Cl)c2=O)c(=O)[nH]1 [Example 21, 2-chloro-5-(difluoromethyl)-3-((1-((2,4-dimethyl-6-oxo-1,6-dihydropyrimidin-5-yl)methyl)-6-oxo-4-(1,1,2,2-tetrafluoroethyl)-1,6-dihydropyrimidin-5-yl)oxy)benzonitrile] | 132 |  |
| COCc1nc(C)c(Cn2cnc(C(F)(F)C(F)F)c(Oc3cc(C(F)F)cc(C#N)c3C)c2=O)c(=O)[nH]1 [Example 51, 5-(difluoromethyl)-3-((1-((2-(methoxymethyl)-4-methyl-6-oxo-1,6-dihydropyrimidin-5-yl)methyl)-6-oxo-4-(1,1,2,2-tetrafluoroethyl)-1,6-dihydropyrimidin-5-yl)oxy)-2-methylbenzonitrile] | 395 |  |
| COc1c(C#N)cc(C(F)F)cc1Oc1c(C(C)F)ncn(Cc2c(C)nc(C)[nH]c2=O)c1=O (single isomer, unassigned) [Example 36] |  | 72.3 |
| Cc1nc(C)c(Cn2cnc(C(C)F)c(Oc3cc(Cl)cc(C#N)c3F)c2=O)c(=O)[nH]1 (single isomer, unassigned) [Example 31] |  | 397 |
| Cc1nc(C)c(Cn2cnc(C(F)(F)F)c(Oc3cc(C(F)F)cc(C#N)c3C)c2=O)c(=O)[nH]1 [Example 8, 5-(difluoromethyl)-3-((1-((2,4-dimethyl-6-oxo-1,6-dihydropyrimidin-5-y1)methyl)-6-oxo-4-(trifluoromethyl)-1,6-dihydropyrimidin-5-y1)oxy)-2-methylbenzonitrile] | 252 |  |
| Cc1ncc(Cn2cnc(C(F)(F)C(F)(F)F)c(Oc3cc(C(F)F)cc(C#N)c3C)c2=O)c(=O)[nH]1 [Example 67, 5-(difluoromethyl)-2-methyl-3-((1-((2-methyl-6-oxo-1,6-dihydropyrimidin-5-yl)methyl)-6-oxo-4-(perfluoroethyl)-1,6-dihydropyrimidin-5-yl)oxy)benzonitrile] | 174 |  |
| Cc1nc(C)c(Cn2cnc(C(F)(F)C(F)(F)F)c(Oc3c(C)cc(C#N)cc3Cl)c2=O)c(=O)[nH]1 [Example 95, 3-chloro-4-((1-((2,4-dimethyl-6-oxo-1,6-dihydropyrimidin-5-yl)methyl)-6-oxo-4-(perfluoroethyl)-1,6-dihydropyrimidin-5-yl)oxy)-5-methylbenzonitrile] | 179 |  |
| Cc1nc(C)c(Cn2cnc(C(F)(F)C(F)F)c(Oc3cc(C#N)cc(C(F)F)c3)c2=O)c(=O)[nH]1 [Example 69, 3-(difluoromethyl)-5-((1-((2,4-dimethyl-6-oxo-1,6-dihydropyrimidin-5-yl)methyl)-6-oxo-4-(1,1,2,2-tetra-fluoroethyl)-1,6-dihydropyrimidin-5-yl)oxy)benzonitrile] | 340 |  |
| Cc1nc(COc2ncccn2)[nH]c(=O)c1Cn1cnc(C(C)(F)F)c(Oc2cc(Cl)cc(C#N)c2F)c1=O [Example 24, 5-chloro-3-((4-(1,1-difluoroethyl)-1-((4-methyl-6-oxo-2-((pyrimidin-2-yloxy)methyl)-1,6-dihydropyrimidin-5-yl)methyl)-6-oxo-1,6-dihydropyrimidin-5-yl)oxy)-2-fluorobenzonitrile] | 339 |  |
| Cc1cc(C#N)c(F)c(Oc2c(C(F)(F)C(F)(F)F)ncn(Cc3c(C)nc(C)[nH]c3=O)c2=O)c1 [Example 93, 3-((1-((2,4-dimethyl-6-oxo-1,6-dihydropyrimidin-5-yl)methyl)-6-oxo-4-(perfluoroethyl)-1,6-dihydropyrimidin-5-yl)oxy)-2-fluoro-5-methylbenzonitrile] | 172 |  |
| Cc1nc(C)c(Cn2cnc(C(C)(F)F)c(Oc3c(Cl)cc(C#N)cc3Cl)c2=O)c(=O)[nH]1 [Example 13, 3,5-dichloro-4-((4-(1,1-difluoroethyl)-1-((2,4-dimethyl-6-oxo-1,6-dihydropyrimidin-5-yl)methyl)-6-oxo-1,6-dihydropyrimidin-5-yl)oxy) benzonitrile] | 395 |  |
| Cc1nc(C)c(Cn2cnc(C(F)(F)F)c(Oc3cc(Br)cc(C#N)c3Cl)c2=O)c(=O)[nH]1 [Example 89, 5-bromo-2-chloro-3-((1-((2,4-dimethyl-6-oxo-1,6-dihydro-pyrimidin-5-yl)methyl)-6-oxo-4-(trifluoromethyl)-1,6-dihydropyrimidin-5-yl)oxy) benzonitrile] | 434 |  |
| Cc1nc(N)c(Cn2cnc(C(F)(F)F)c(Oc3cc(C(F)F)cc(C#N)c3C)c2=O)c(=O)[nH]1 [Example 60, 3-((1-((4-amino-2-methyl-6-oxo-1,6-dihydropyrimidin-5-yl)methyl)-6-oxo-4-(trifluoromethyl)-1,6-dihydropyrimidin-5-yl)oxy)-5-(difluoromethyl)-2-methylbenzonitrile] | 228 |  |
| Cc1nc(C)c(Cn2cnc(C(F)(F)C(F)F)c(Oc3cc(C(F)(F)F)cc(C#N)c3Cl)c2=O)c(=O)[nH]1 [Example 94, 2-chloro-3-((1-((2,4-dimethyl-6-oxo-1,6-dihydropyrimidin-5-yl)methyl)-6-oxo-4-(1,1,2,2-tetrafluoroethyl)-1,6-dihydropyrimidin-5-yl)oxy)-5-(trifluoromethyl)benzonitrile] | 492 |  |
| COCCCc1nc(C)c(Cn2cnc(C(F)(F)C(F)(F)F)c(Oc3cc(Cl)cc(C#N)c3F)c2=O)c(=O)[nH]1 [Example 55, 5-chloro-2-fluoro-3-((1-((2-(3-methoxypropyl)-4-methyl-6-oxo-1,6-dihydropyrimidin-5-yl)methyl)-6-oxo-4-(perfluoroethyl)-1,6-dihydropyrimidin-5-yl)oxy)benzonitrile] | 276 |  |

Source: patent US12258329B2 (Merck Sharp & Dohme LLC, priority 2018, dated 2025)
